20 compounds from US20200347043A1, “MODULATORS OF THE INTEGRATED STRESS PATHWAY” (Calico Life Sciences LLC, priority 2019, published 2020) can be followed below.

For orientation: EC50 means the concentration that produces a half-maximal response.

Where only a bound is given, the exact number is not on record here.

The experiment relates to HEK293T cells carrying the ATF4 luciferase reporter. Briefly: ATF4-Luc assay (in vitro model of VWMD). It is filed as cell-based, human. The note with it: Homo sapiens, HEK-293T, 1 μg/mL tunicamycin, 7 hours, One Glo luminescence. The procedure, abridged: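 Tunicamycin (1 μg/mL) stress with co-added compound for 7 hours in HEK293T cells stably carrying an ATF4 5′-UTR–luciferase reporter. EC50 values come from the luminescent signal (One Glo).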
With `O=C1CC(C(=O)N[C@@H]2CC[C@@H](C(=O)NCc3ccc(C(F)(F)F)cc3)OC2)Oc2ccc(Cl)cc21` (stereo partly drawn) [Compound 137, 6-chloro-4-oxo-N-[(3R,6S)-6-({[4-(trifluoromethyl)phenyl]methyl}carbamoyl)oxan-3-yl]-3,4-dihydro-2H-1-benzopyran-2-carboxamide], the EC50 was in the range of 50 to 250 nM.
For `O=C1CC(C(=O)N[C@H]2CC[C@H](C(=O)NCc3nc4ccc(Cl)cc4[nH]3)CC2)Oc2ccc(Cl)cc21` (some centres unmarked) [Compound 138, 6-chloro-N-[(1r,4r)-4-{[(6-chloro-1H-benzimidazol-2-yl)methyl]carbamoyl}cyclohexyl]-4-oxo-3,4-dihydro-2H-1-benzopyran-2-carboxamide], the EC50 was 50 to 250 nM.
`O=C1CC(C(=O)N[C@@H]2CC[C@@H](C(=O)N3CC(Oc4ccc(Cl)cc4)C3)OC2)Oc2ccc(Cl)cc21` (stereo partly drawn) [Compound 139, 6-chloro-N-{(3R,6S)-6-[3-(4-chlorophenoxy)azetidine-1-carbonyl]oxan-3-yl}-4-oxo-3,4-dihydro-2H-1-benzopyran-2-carboxamide]: the EC50 lay in the range of 500 to 2000 nM.
On to `O=C1CC(C(=O)N[C@@H]2CC[C@@H](C(=O)NCc3cn4ccc(Cl)cc4n3)OC2)Oc2ccc(Cl)cc21` (stereo partly drawn) [Compound 140, 6-chloro-N-[(3R,6S)-6-{[(7-chloroimidazo[1,2-a]pyridin-2-yl)methyl]carbamoyl}oxan-3-yl]-4-oxo-3,4-dihydro-2H-1-benzopyran-2-carboxamide], for which the EC50 was 50 to 250 nM.
For `O=C(COc1ccc(Cl)c(F)c1)N[C@H]1CC[C@H](NC(=O)C2CC(O)c3cc(Cl)ccc3O2)CC1` (some centres unmarked) [Compound 141, 6-chloro-N-{(1r,4r)-4-[2-(4-chloro-3-fluorophenoxy)acetamido]cyclohexyl}-4-hydroxy-3,4-dihydro-2H-1-benzopyran-2-carboxamide], the EC50 was 10 to 50 nM.
`Cc1cc(C)cc(OCC2CN(C34CC(NC(=O)[C@H]5C[C@@H](O)c6cc(Cl)ccc6O5)(C3)C4)C(=O)O2)c1` (stereo partly drawn) [Compound 142, (2R,4R)-6-chloro-N-(3-{5-[(3,5-dimethylphenoxy)methyl]-2-oxo-1,3-oxazolidin-3-yl}bicyclo[1.1.1]pentan-1-yl)-4-hydroxy-3,4-dihydro-2H-1-benzopyran-2-carboxamide]: the EC50 is more than 2000 nM.
As to `O=C(NC1CC2(C1)CN(C(=O)COc1ccc(Cl)c(F)c1)C2)[C@H]1C[C@@H](O)c2cc(Cl)ccc2O1` [Compound 143, (2R,4R)-6-chloro-N-{2-[(4-chloro-3-fluorophenoxy)acetyl]-2-azaspiro[3.3]heptan-6-yl}-4-hydroxy-3,4-dihydro-2H-1-benzopyran-2-carboxamide], the EC50 was 50 to 250 nM.
For `O=C(COc1ccc(Cl)c(F)c1)NC1CC2(C1)CN(C(=O)C1CC(=O)c3cc(Cl)ccc3O1)C2` (centres unmarked) [Compound 144, 2-(4-chloro-3-fluorophenoxy)-N-[2-(6-chloro-4-oxo-3,4-dihydro-2H-1-benzopyran-2-carbonyl)-2-azaspiro[3.3]heptan-6-yl]acetamide], the EC50 was 50 to 250 nM.
Regarding `O=C(NC12CCC(NC(=O)[C@H]3C[C@@H](OC(F)(F)F)C3)(CC1)[C@@H](O)C2)c1cc(=O)c2cc(Cl)ccc2o1` [Compound 146, 6-chloro-N-[(3S)-3-hydroxy-4-{[(1s,3R)-3-(trifluoromethoxy)cyclobutane-1-carbonyl]amino}bicyclo[2.2.2]octan-1-yl]-4-oxo-4H-1-benzopyran-2-carboxamide], the EC50 fell in the range of 250 to 500 nM.
Consider `O=C1CC(C(=O)NC23CC(n4cnc(-c5ccc(F)c(F)c5)c4)(C2)C3)Oc2ccc(Cl)cc21` (centres unmarked) [Compound 148, 6-chloro-N-{3-[4-(3,4-difluorophenyl)-1H-imidazol-1-yl]bicyclo[1.1.1]pentan-1-yl}-4-oxo-3,4-dihydro-2H-1-benzopyran-2-carboxamide], for which the EC50 was 10 to 50 nM.
On to `O=C1CC(C(=O)NC23CCC(c4nnc(C5CC(OC(F)(F)F)C5)o4)(C2)C3)Oc2ccc(Cl)cc21` (centres unmarked) [Compound 150, 6-chloro-4-oxo-N-(4-{5-[(1s,3s)-3-(trifluoromethoxy)cyclobutyl]-1,3,4-oxadiazol-2-yl}bicyclo[2.1.1]hexan-1-yl)-3,4-dihydro-2H-1-benzopyran-2-carboxamide], for which the EC50 is more than 2000 nM.
In the case of `O=C1CC(C(=O)N[C@@H]2CC[C@@H](c3nnc([C@H]4C[C@@H](OC(F)(F)F)C4)o3)OC2)Oc2ccc(Cl)cc21` (stereo partly drawn) [Compound 152, 6-chloro-4-oxo-N-[(3R,6)-6-{5-[(1s,3R)-3-(trifluoromethoxy)cyclobutyl]-1,3,4-oxadiazol-2-yl}oxan-3-yl]-3,4-dihydro-2H-1-benzopyran-2-carboxamide] it was 10 to 50 nM.
For `O=C(COc1ccc(Cl)c(F)c1)N[C@@H]1CC[C@@H](c2nnc([C@H]3C[C@@H](OC(F)(F)F)C3)o2)OC1` [Compound 153, 2-(4-chloro-3-fluorophenoxy)-N-[(3R,6S)-6-{5-[(1s,3R)-3-(trifluoromethoxy)cyclobutyl]-1,3,4-oxadiazol-2-yl}oxan-3-yl]acetamide], the EC50 was less than 10 nM.
`O=C(NC12CC(C3NC(COc4ccc(Cl)c(F)c4)=NO3)(C1)C2)[C@H]1C[C@@H](O)c2cc(Cl)ccc2O1` (stereo partly drawn) [Compound 154, (2R,4R)-6-chloro-N-(3-{3-[(4-chloro-3-fluorophenoxy)methyl]-4,5-dihydro-1,2,4-oxadiazol-5-yl}bicyclo[1.1.1]pentan-1-yl)-4-hydroxy-3,4-dihydro-2H-1-benzopyran-2-carboxamide]: the half-maximal effective concentration (EC50) fell in the range of 10 to 50 nM.
`O=C1C[C@H](C(=O)NC23CC(c4nc(COc5ccc(Cl)c(F)c5)no4)(C2)C3)Oc2ccc(Cl)cc21` [Compound 155, (2R)-6-chloro-N-(3-{3-[(4-chloro-3-fluorophenoxy)methyl]-1,2,4-oxadiazol-5-yl}bicyclo[1.1.1]pentan-1-yl)-4-oxo-3,4-dihydro-2H-1-benzopyran-2-carboxamide]: the EC50 lay in the range of 10 to 50 nM.
With `O=C(NC12CC(c3nc(COc4ccc(Cl)c(F)c4)no3)(C1)C2)[C@H]1C[C@@H](O)c2cc(Cl)ccc2O1` [Compound 156, (2R,4R)-6-chloro-N-(3-{3-[(4-chloro-3-fluorophenoxy)methyl]-1,2,4-oxadiazol-5-yl}bicyclo[1.1.1]pentan-1-yl)-4-hydroxy-3,4-dihydro-2H-1-benzopyran-2-carboxamide], the EC50 was less than 10 nM.
In the case of `O=C(CO[C@H]1C[C@@H](OC(F)(F)F)C1)NC12CCC(C(=O)NCc3ccc(C(F)(F)F)cn3)(CC1)CC2` [Compound 157] it was more than 2000 nM.
For the compound `O=C(CO[C@H]1C[C@@H](OC(F)(F)F)C1)N[C@H]1CC[C@H](C(=O)NCc2ccc(C(F)(F)F)cn2)CC1` [Compound 158, (1r,4r)-4-(2-{[(1s,3s)-3-(trifluoromethoxy)cyclobutyl]oxy}acetamido)-N-([5-(trifluoromethyl)pyridin-2-yl]methyl)cyclohexane-1-carboxamide], the EC50 was more than 2000 nM.
The result for `O=C(CO[C@H]1C[C@@H](OC(F)(F)F)C1)NC12CC(NC(=O)[C@H]3CC(=O)c4cc(Cl)ccc4O3)(C1)C2` [Compound 162, (2R)-6-chloro-4-oxo-N-[3-(2-{[cis-3-(trifluoromethoxy)cyclobutyl]oxy}acetamido)bicyclo[1.1.1]pentan-1-yl]-3,4-dihydro-2H-1-benzopyran-2-carboxamide] reads 10 to 50 nM.
For the compound `O=C1CC(C(=O)NC23CCC(c4nnc([C@H]5C[C@@H](OC(F)(F)F)C5)o4)(CC2)OC3)Oc2ccc(Cl)cc21` (some centres unmarked) [Compound 163], the EC50 fell in the range of 10 to 50 nM.
